The text below walks through data of US11866455B2, “Gold(III) complex, a conjugate of the gold(III) complex, a pharmaceutical composition comprising the gold(III) complex and uses and a process for preparing the gold(III) complex” (UNIVERSIDAD DE ALMERIA, priority 2018, dated 2024).

≈ marks a conversion by molar mass, not a printed value. Read-outs that look alike come from different tables or passages of the source.

Broadly, the MIC is the lowest concentration found to suppress growth.

Data set [1] concerns MRSA methicillin resistant S. aureus. Description: Antimicrobial activity (MIC) against S. aureus / MRSA. The conditions noted are these: Staphylococcus aureus, Cli, Eri, Pen, Lvx. The class given is cell-based.
The test system is the same in data set [2]. Description: Antibiofilm activity (MBIC) against MRSA. The class given is cell-based. To be noted: Cli, Eri, Pen, Lvx.
Data set [3] can be described thus: Stability studies by 1H and 31P NMR. The class given is physicochemical. To be noted: for stability towards reducing agent (31P NMR): CD3CN/H2O. As for the experimental part:
A solution of compound 2f in CD3CN (0.25 mL) was mixed with 0.25 mL of saline phosphate buffer (pH 7.4) in D2O and the mixture was monitored at 37° C. over three days through ^1H and ^31P NMR spectroscopy. […] Such observations show a substantial evidence for the stability of complexes 2 under physiological conditions.
Complexes 2 are also stable in the conditions used for the biological activity assays, as evidenced by the ^31P NMR spectra of a solution of compound 2f in CD3CN (0.25 mL) and 0.25 mL of ISOsensitest culture broth prepared in D2O (FIG. 15).
To gain a more complete picture of the stability and the solution behavior of these gold(III) compounds 2, the spectral changes produced by addition of classical reducing agents, i.e. glutathione (GSH) and ascorbic acid (AsAc) were also examined. Thus, solutions of compound 2f in CD3CN (0.25 mL) were mixed with solutions containing equimolar amounts of either GSH or AsAc in 0.25 mL of H2O.

In data set [4] the test system is A. baumannii. Description: MIC against A. baumannii, alone and in combination with colistine. The class given is cell-based.

On to `C[C@H]1COc2c(N3CCN(C)CC3)c(F)cc3c(=O)c(C(=O)O)cn1c23` [Levofloxacin, levofloxacin], for which the MIC in data set [1] (MRSA, strain MRSA 1, resistance profile Cip) was 128 µg/mL (≈ 354 µM); in data set [1] (strain MRSA 2, resistance profile Gen, Cip, read-out: MIC) it was 64 µg/mL (≈ 177 µM). Moreover, the MBIC in data set [2] (strain MRSA 1, resistance profile Cip) was more than 256 mg/L; in data set [2] (strain MRSA 2, resistance profile Gen, Cip) it was 128 mg/L.
In the case of “[Gold(III) 2-((diisopropylamino)(phenyl)phosphorothioyl)phenyl) (pirrolidin-1-dithiocarbamate)] hexafluorophosphate [Compound 2f]”, in data set [3] (CD3CN / ISOsensitest culture broth in D2O), the “stability in the conditions of the biological activity assays” value is on record as “stable”. Further, the “31P NMR signal of the complex (stability)” value in data set [3] (CD3CN / saline phosphate buffer (pH 7.4) in D2O, 37° C., three days) was “remained unaltered”. Moreover, the “stability towards reducing agent (31P NMR)” value in data set [3] (equimolar ascorbic acid (AsAc)) and in data set [3] (equimolar glutathione (GSH)) was “maintained its chemical integrity” in each case.
Take colistine: in data set [4] (each antibiotic separately), the MIC is 64 µg/mL. Besides, the MIC in combination in data set [4] (gold(III) complex and colistine used in combination) turned out to be 1 µg/mL.
